Test results: patent US20040220085A1, “Compositions for nucleic acid delivery” (priority 2003, published 2004)

Columns and labels:
Format in all cases: cell-based, human
[1] = test system: JJ5 breast cancer cells; assay: Cytotoxicity (colony-forming) assay against JJ5 breast cancer cells; conditions: 14 days
Description: JJ5 breast cancer cells were incubated with increasing amounts EGF-^111In-labeled transferrin composition or ^111In-oxine, centrifuged to remove free ligand, assayed and then seeded into 50 mm culture dishes. The number of cells seeded was varied from 3×10^4 to 3×10^6cells to obtain approximately 400 viable colonies/dish taking into account the plating efficiency and the expected level of cytotoxicity. Control dishes contained JJ5 breast cancer cells which were incubated with normal saline. Growth medium was added and the cells were cultured at 37° C./5% CO^2 for 14 days. The growth medium was removed and the colonies were stained with methylene blue (1% in a 1:1 mixture of ethanol and water) then washed twice. The number of colonies per dish was counted using a manual colony counter (Manostat Corp). The plating efficiency was calculated by dividing the number of colonies observed by the number of cells seeded in each dish. The surviving fraction at increasing amounts of EGF-^111In-labeled transferrin composition or ^111In-oxine was calculated by dividing the plating efficiency for dishes containing treated cells with that observed for control dishes with normal saline.

[2] = test system: JJ5 Breast Cancer cells (EGFR); assay: Binding of EGF-111In-labeled transferrin composition to JJ5 breast cancer cells
Description: For the normal breast cell line HBL-100, 8000 EGFR/cell has been reported. The expression of EGFR in breast cancer cell lines has a reported range of 800 EGFR/cell for MCF-7 cells to 10^6 EGFR/cell for MDA-MB-468 cells. […] Utilizing the Auger electron emitter ^111In was used in the initial experiments to illustrate the utility of the invention using EGF-^111In-labeled transferrin compositions. The EGF-^111In-labeled transferrin (0.25-80 ng) was incubated with 1.5×10^6 cells/dish JJ5 Breast Cancer (prepared from BCBM JJ5) cells in 1 mL of 0.1% human serum albumin in 35 mm multiwell culture dishes at 37° C. for 30 minutes. The cells were transferred to a centrifuge tube and centrifuged. The cell pellet was separated from the supernatant and counted in a g-scintillation counter to determine bound (B) and free (F) radioactivity. Non-specific binding was determined by conducting the assay in 100 nM hEGF. The kinetics of binding was determined by incubating 1 ng of EGF-^111In-labeled transferrin composition with 3×10^6 JJ5 Breast Cancer cells at 37° C. and determining the proportion of radioactivity bound to the cells at various times up to 24 hours. Internalized fraction was measured by determining the proportion of radioactivity which could not be displaced from the cell surface by 100 nM hEGF. Cell-associated binding (surface-binding and intracellular accumulation) was expressed as a percentage of medium radioactivity bound per mg of cell study protein.

[3] = test system: JJ5 breast cancer cells; assay: Growth inhibition assay against JJ5 breast cancer cells; conditions: 4 days culture
Description: JJ5 breast cancer cells (prepared from BCBM JJ5) expressing approximately 10^6 epidermal growth factor receptors/cell were incubated with EGF-^111In-labeled transferrin composition, unlabeled hEGF or ^111In-oxine, centrifuged to remove free ligand, then assayed and seeded (10^6 cells/dish) into 35 mm culture dishes. Growth medium was added and the cells were cultured at 37° C./5% CO^2 for 4 days. The cells were then recovered by trypsinization and counted in a hemocytometer. Control dishes contained cells cultured in growth medium containing ^111In-DTPA or growth medium alone.

Compound | reduction in cell survival for JJ5 cells ([1]; 8 pCi/cell) | internalization by cancer cells ([2]; JJ5 cells) | number of binding sites ([2]; JJ5 cells) | kinetics of binding to the breast cancer cells ([2]; JJ5 cells, 37° C.) | time retained by the breast cancer cells ([2]; JJ5 cells, 37° C.) | affinity constant for binding to JJ5 cells ([2]; JJ5 cells, 37° C., 30 minutes) | 111In radioactivity lost from the cells in vitro ([2]; over a 24 hour period at 37° C.) | growth inhibition of the JJ5 cells compared to the medium control ([3]; 3.4 pCi/cell) | cell killing ([1]; <6 pCi/cell) | growth inhibition of the JJ5 cells ([3]; 3.5 pCi/cell)
EGF-^111In-labeled transferrin composition: human EGF linked to transferrin radiolabeled with the Auger electron emitter 111In at the iron-binding sites | 99% | rapidly internalized | 2.7×10^6 | rapidly bound | at least 24 hours | 8e+08 L/mol | < 8% | 83% |  | 
[In+3].[O-]c1cccc2cccnc12.[O-]c1cccc2cccnc12.[O-]c1cccc2cccnc12 [^111In-oxine, reference compound] |  |  |  |  |  |  |  |  | greater than 99% | 91%
